From PMC12049818, “Identification of NUV-244 as a PNPLA3 I148M degrading small molecule” (iScience, 2025)
pEC50: −log10 of the molar value. Like-named read-outs stand apart in the source and are kept apart here.

Columns and labels:
PNPLA3 WT = molecular target: T1, PNPLA3 WT (Homo sapiens, UniProt Q9NST1); assay: nanoDSF thermal shift, PNPLA3 WT protein; format: binding; details: ligand 25 μM
T1 construct: Full-length wild-type PNPLA3 (Q9NST1), mutant PNPLA3 (I148M), and PNPLA2 (Q96AD5) were cloned into the pVL1393 vector; Flag (N); made in house; host or cells: SF9 insect cells (baculovirus, pVL1393)
T1 sequence (Q9NST1 1-481): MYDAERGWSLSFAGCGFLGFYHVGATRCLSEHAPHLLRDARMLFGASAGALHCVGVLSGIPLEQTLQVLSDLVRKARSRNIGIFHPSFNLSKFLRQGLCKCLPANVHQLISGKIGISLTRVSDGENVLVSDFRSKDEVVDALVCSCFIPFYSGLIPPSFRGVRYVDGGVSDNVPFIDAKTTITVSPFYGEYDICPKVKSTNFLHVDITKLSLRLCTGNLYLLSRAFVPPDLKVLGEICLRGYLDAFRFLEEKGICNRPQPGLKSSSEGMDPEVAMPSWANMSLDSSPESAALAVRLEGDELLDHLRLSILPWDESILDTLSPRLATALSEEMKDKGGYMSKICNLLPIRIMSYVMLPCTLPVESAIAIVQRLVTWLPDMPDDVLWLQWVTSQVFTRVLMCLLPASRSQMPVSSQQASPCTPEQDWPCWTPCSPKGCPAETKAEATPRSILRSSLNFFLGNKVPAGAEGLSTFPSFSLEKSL
Source text: To investigate the mode of action of NUV-244, we evaluated its direct binding to the PNPLA3 I148M protein using nano differential scanning fluorimetry (nanoDSF). In this assay, compounds that bind to a target protein can lead to thermal stabilization, preventing protein denaturation, which is reflected in a shift of the protein melting curve.
Full-length wild-type PNPLA3 (Q9NST1), mutant PNPLA3 (I148M), and PNPLA2 (Q96AD5) were cloned into the pVL1393 vector with an N-terminal Flag-Tag. Proteins were expressed in SF9 cells infected at a multiplicity of infection (MOI) of 1 for 72 hours. Protein purification was performed using a two-step process. The first step involved affinity purification using M2 anti-Flag agarose beads. This was followed by gel filtration chromatography using a Superdex 200 column. Thermal melting experiments were carried out using a Prometheus NT.48 instrument (NanoTemper Technologies). Proteins were prepared in 20 mM Tris-HCl pH 7.4, 100 mM NaCl, 5 % Glycerol, 2 mM DTT and 0.2 mg/mL was used as a final concentration in 50 μL volume. For binding experiments, ligands were added to the mixture at a final concentration of 25 μM, DMSO was used as control. […] The intrinsic protein fluorescence at 330 and 350 nm was recorded. Data were analysed using Prometheus NT.48 software. Thermal shifts (ΔTm) were calculated, and Z-scores greater than 6 indicated robust stabilization. […]

PNPLA2 = molecular target: T2, PNPLA2 (Homo sapiens, UniProt Q96AD5); assay: Huh7 PNPLA2 immunofluorescence counter assay (PNPLA2 on lipid droplets); format: cell-based; parameters: immunofluorescence against endogenous PNPLA2 on lipid droplets in Huh7 cells; endogenous in cells; host or cells: Huh7; details: for pEC50: read-out: EC50 Huh7, PNPLA2 IF
T2 sequence (Q96AD5 1-504): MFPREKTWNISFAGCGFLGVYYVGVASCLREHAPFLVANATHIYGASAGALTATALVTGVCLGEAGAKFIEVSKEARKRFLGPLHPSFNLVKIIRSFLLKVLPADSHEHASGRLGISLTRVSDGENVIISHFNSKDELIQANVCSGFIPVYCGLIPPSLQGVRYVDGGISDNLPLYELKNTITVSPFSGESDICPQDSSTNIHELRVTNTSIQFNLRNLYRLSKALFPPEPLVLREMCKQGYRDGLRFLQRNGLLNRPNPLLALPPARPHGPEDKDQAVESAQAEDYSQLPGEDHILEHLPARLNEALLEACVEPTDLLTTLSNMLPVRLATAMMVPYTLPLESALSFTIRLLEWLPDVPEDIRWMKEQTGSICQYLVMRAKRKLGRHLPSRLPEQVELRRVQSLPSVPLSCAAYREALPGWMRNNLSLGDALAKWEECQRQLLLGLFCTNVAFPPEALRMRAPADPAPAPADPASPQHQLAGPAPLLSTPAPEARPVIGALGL
Description: These efforts led to the identification of NUV-244, a thiazolecarboxamide (Figure 2A).
Cells were fixed with 4% paraformaldehyde for 15 minutes at room temperature. Cells were blocked with 0.2 M glycine, 0.1 mg/mL saponin, and 30 mg/mL bovine serum albumin (BSA) (all Sigma Aldrich) in PBS for 1 hour. Cells were washed 1x with washing buffer (0,1 mg/ml saponin + 1 mg/ml Bovine serum albumin) using a Blue Washer (Blue Cat Bio). Mouse anti-human ADPN (PNPLA3, C-8, #sc-390252, Santa Cruz) and rabbit anti-human PNPLA2 (Sigma Aldrich, #HPA055173-25UL) primary antibodies and appropriate secondary antibodies conjugated with Alexa-Fluor 647 (Jackson ImmunoResearch) were used. All antibodies were diluted in 0.1 mg/ml Saponin + 1 mg/ml Bovine serum albumin. Incubation with primary antibodies was over night at 4°C. Cells were stained simultaneously with the secondary antibody and Hoechst 33342 (final 2 μg/ml, Biotium) for 1h at room temperature in the dark. For Staining of lipid droplets 38 nM BODIPY was used for 30 minutes at room temperature.
Images were acquired by an Opera Phenix confocal spinning disc microscope system (Revvity, Waltham, MA, USA) with a 20x or 40x water objective at 405 nm (Hoechst), 488 nm (BODIPY) and 647 nm. Quantification was carried out with the Harmony (Revvity, Waltham, MA, USA) or MetaXpress software (Molecular Devices). Normalization, quality control, and fitting curves for EC50 determination of tested compounds were performed with Genedata Screener® for high-content screening and Genedata Condoseo modules (Genedata AG, Basel, Switzerland).

PNPLA3 = molecular target: T3, PNPLA3 (Homo sapiens, UniProt Q9NST1); assay: Huh7 untagged PNPLA3 immunofluorescence on lipid droplets; format: cell-based; details: anti-PNPLA3 IF; representative curve, Figure 3E
T3 construct: host or cells: Huh7
T3 sequence (Q9NST1 1-481): T1 sequence (Q9NST1 1-481)
Description: Even though C-terminal tagging is reported not to interfere with PNPLA3 localization,[20] we established an assay to exclude the possibility that C-terminal tagging of PNPLA3 with tagRFP could alter PNPLA3 response to NUV-244 on lipid droplets. For this we generated Huh7 cell lines that express untagged variants of PNPLA3 I148M or PNPLA3 WT and visualized PNPLA3 on lipid droplets by immunofluorescence (Figures 3C, 3D, and S3A).
Cells were fixed with 4% paraformaldehyde for 15 minutes at room temperature. Cells were blocked with 0.2 M glycine, 0.1 mg/mL saponin, and 30 mg/mL bovine serum albumin (BSA) (all Sigma Aldrich) in PBS for 1 hour. Cells were washed 1x with washing buffer (0,1 mg/ml saponin + 1 mg/ml Bovine serum albumin) using a Blue Washer (Blue Cat Bio). Mouse anti-human ADPN (PNPLA3, C-8, #sc-390252, Santa Cruz) and rabbit anti-human PNPLA2 (Sigma Aldrich, #HPA055173-25UL) primary antibodies and appropriate secondary antibodies conjugated with Alexa-Fluor 647 (Jackson ImmunoResearch) were used. […]
Images were acquired by an Opera Phenix confocal spinning disc microscope system (Revvity, Waltham, MA, USA) with a 20x or 40x water objective at 405 nm (Hoechst), 488 nm (BODIPY) and 647 nm. Quantification was carried out with the Harmony (Revvity, Waltham, MA, USA) or MetaXpress software (Molecular Devices). […]

## Cc1cccc(Cc2nc(C)c(C(=O)Nc3cc(O)ccc3Cl)s2)c1 [NUV-244]
PNPLA3 WT
  ΔTm PNPLA3 WT: 7.02 °C
PNPLA2; 1μM, Huh7
  effect on PNPLA2 staining on lipid droplets: no effect
PNPLA2; HTS batch (hit)
  pEC50: < 4.74
PNPLA2; Huh7 cells, dose-response
  effect on PNPLA2 localization to lipid droplets: no effect
PNPLA2; resynthesis batch
  pEC50: < 4.77
PNPLA2; resynthesis batch, result in words
  EC50 Huh7 PNPLA2 IF (resynthesis): no activity
PNPLA3
  EC50: 0.341 µM
